What was measured:
Assay in all cases: Thymidylate Synthase (TS) Assay
Conditions in all cases: pH 7.4; 20 °C
Thymidylate synthase [1] = target: T1, Thymidylate synthase (Cryptococcus neoformans var. neoformans serotype D (strain B-3501A), UniProt P0CS13)
T1 sequence (P0CS13 whole entry): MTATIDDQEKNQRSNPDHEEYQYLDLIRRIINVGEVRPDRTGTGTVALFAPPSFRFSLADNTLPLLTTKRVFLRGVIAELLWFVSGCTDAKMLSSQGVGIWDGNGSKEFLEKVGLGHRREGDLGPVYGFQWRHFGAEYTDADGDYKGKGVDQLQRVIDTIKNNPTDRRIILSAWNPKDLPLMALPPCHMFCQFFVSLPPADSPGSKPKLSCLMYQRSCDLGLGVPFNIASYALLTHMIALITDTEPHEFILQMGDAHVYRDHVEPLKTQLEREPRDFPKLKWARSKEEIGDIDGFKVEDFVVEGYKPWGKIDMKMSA
Procedure: (§1) TS was assayed spectrophotometrically in the reaction buffer solution containing (6R, 6S)-5, 10-CH2H4folate. The reaction was initiated by the addition of an amount of enzyme yielding a change in absorbance at 340 nm of 0.016/min in the absence of inhibitor. Ki values were obtained from the linear least-squares fit of the residual activity as a function of inhibitor concentration, using suitable equations for competitive inhibition.

Thymidylate synthase [2] = target: T2, Thymidylate synthase (Pneumocystis carinii, UniProt P13100)
T2 sequence (P13100 whole entry): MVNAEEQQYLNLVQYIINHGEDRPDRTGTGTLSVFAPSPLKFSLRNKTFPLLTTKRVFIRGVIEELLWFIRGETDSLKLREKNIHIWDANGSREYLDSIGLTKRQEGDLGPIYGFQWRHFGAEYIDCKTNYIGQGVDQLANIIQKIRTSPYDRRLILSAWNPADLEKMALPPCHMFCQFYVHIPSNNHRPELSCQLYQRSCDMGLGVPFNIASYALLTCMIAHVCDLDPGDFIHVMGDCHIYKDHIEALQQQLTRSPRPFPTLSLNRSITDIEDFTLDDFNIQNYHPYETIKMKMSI
Procedure: as §1

Thymidylate synthase [3] = target: Thymidylate synthase (Homo sapiens, UniProt P04818)
Procedure: as §1

Thymidylate synthase [4] = target: T3, Thymidylate synthase (Lacticaseibacillus casei, UniProt P00469)
T3 sequence (P00469 whole entry): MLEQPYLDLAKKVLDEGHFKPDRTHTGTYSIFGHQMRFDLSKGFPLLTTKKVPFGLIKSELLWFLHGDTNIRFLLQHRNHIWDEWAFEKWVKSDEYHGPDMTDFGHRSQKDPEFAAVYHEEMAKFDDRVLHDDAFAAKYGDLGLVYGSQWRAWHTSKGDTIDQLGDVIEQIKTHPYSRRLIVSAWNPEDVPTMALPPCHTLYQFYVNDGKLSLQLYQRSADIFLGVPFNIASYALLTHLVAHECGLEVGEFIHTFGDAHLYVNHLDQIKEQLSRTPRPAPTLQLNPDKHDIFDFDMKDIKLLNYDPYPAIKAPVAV
Procedure: as §1

Thymidylate synthase [5] = target: Thymidylate synthase (Escherichia coli (strain K12), UniProt P0A884)
Procedure: as §1

Sequence of Thymidylate synthase (Escherichia coli (strain K12), UniProt P0A884) (P0A884 whole entry): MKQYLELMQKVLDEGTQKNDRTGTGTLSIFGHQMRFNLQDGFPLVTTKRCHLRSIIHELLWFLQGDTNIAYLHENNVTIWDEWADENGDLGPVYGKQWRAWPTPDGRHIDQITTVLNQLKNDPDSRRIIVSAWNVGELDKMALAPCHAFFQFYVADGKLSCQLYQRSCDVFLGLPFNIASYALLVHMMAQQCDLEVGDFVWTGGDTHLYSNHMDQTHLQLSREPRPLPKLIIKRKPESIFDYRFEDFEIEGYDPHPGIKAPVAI
Sequence of Thymidylate synthase (Homo sapiens, UniProt P04818) (P04818 whole entry): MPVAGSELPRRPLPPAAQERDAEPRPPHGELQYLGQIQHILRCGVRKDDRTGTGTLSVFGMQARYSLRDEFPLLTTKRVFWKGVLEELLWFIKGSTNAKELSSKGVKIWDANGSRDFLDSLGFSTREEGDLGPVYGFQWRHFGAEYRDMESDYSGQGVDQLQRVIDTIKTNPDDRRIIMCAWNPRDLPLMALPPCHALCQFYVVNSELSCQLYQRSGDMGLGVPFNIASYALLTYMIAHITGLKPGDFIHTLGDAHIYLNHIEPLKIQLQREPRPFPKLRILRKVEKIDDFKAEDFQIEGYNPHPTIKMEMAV

`O=C1OC(c2ccc(O)c(Br)c2)(c2ccc(O)c(Br)c2)c2cccc3c(Cl)ccc1c23` [4,4-bis(3-bromo-4-hydroxyphenyl)-10-chloro-3-oxatricyclo[7.3.1.0^{5,13}]trideca-1(12),5(13),6,8,10-pentaen-2-one] was tested, and the Ki (Thymidylate synthase [1]) was 4.1 µM, the Ki (Thymidylate synthase [2]) was 28 µM and the Ki (Thymidylate synthase [3]) was over 245 µM. The Ki (Thymidylate synthase [4]) was 0.8 µM and the Ki (Thymidylate synthase [5]) was 4.1 µM.
